This passage reports CC50 results from publication PMC6792352, “Limited Chemical Structural Diversity Found to Modulate Thyroid Hormone Receptor in the Tox21 Chemical Library” (Environmental Health Perspectives, 2019).

Where a name gives a salt, the structure may show the parent alone.

The nature of one data set: in vitro. The settings on record: rat, gh3-tre-luc cells, AC50 (uM) modified / 1000.
Compound `O=C1c2ccccc2C(=O)c2cc(Cl)ccc21` [2-Chloroanthraquinone] yielded a CC50 at 24 h of more than 5 µM.

`O=Cc1ccccc1Cl` [2-Chlorobenzaldehyde]: the CC50 at 24 h is more than 90 µM. In the case of `NS(=O)(=O)c1ccccc1Cl` [2-Chlorobenzenesulfonamide], the CC50 at 24 h was more than 90 µM. With `O=C(O)c1ccccc1Cl` [2-Chlorobenzoic acid], the CC50 at 24 h is more than 90 µM. Still for that read-out and setting: for `FC(F)(F)c1ccccc1Cl` [2-Chlorobenzotrifluoride] the value was more than 90 µM. Still for that read-out and setting: for `C=CC(=O)OCCCl` [2-Chloroethyl acrylate] the value was more than 90 µM.

In turn, `Oc1ccccc1Cl` [2-Chlorophenol] had a CC50 at 24 h of more than 90 µM.

`CC(Cl)C(=O)O` (centres unmarked) [2-Chloropropanoic acid] gave a CC50 at 24 h of more than 100 µM. The compound `Clc1ccccn1` [2-Chloropyridine] showed a CC50 at 24 h of more than 90 µM. Still for that read-out and setting: under `Cc1ccccc1Cl` [2-Chlorotoluene] stands more than 90 µM; under `C=CC(=O)OCCC#N` [2-Cyanoethyl prop-2-enoate], more than 90 µM; under `O=C1C=CCCC1` [2-Cyclohexen-1-one], more than 90 µM. Same read-out and setting: for `CC(=O)OCCC1CCCCC1` [2-Cyclohexylethyl acetate] the value was more than 90 µM; for `CCCCCCCCCCCC[n+]1ccc2ccccc2c1` [2-Dodecylisoquinolinium tosylate], 5.61 µM. As for `CCOc1ccccc1N` [2-Ethoxyaniline], the CC50 at 24 h is more than 90 µM. `CCOc1ccccc1C(N)=O` [2-Ethoxybenzamide] showed a half-maximal cytotoxic concentration (CC50) at 24 h of more than 90 µM. Same read-out and setting: for `CCOCCO` [2-Ethoxyethanol] the value was more than 90 µM; for `CCOCCOC(C)=O` [2-Ethoxyethyl acetate], more than 90 µM; for `C=C(C)C(=O)OCCOCC` [2-Ethoxyethyl methacrylate], more than 90 µM.

For the compound `CCOc1ccccc1O` [2-Ethoxyphenol], the CC50 at 24 h is more than 90 µM. `CCCC(O)C(CC)CO` (centres unmarked) [2-Ethyl-1,3-hexanediol] came in with a CC50 at 24 h of more than 90 µM. The same measure, in the same setting: under `CCC(CC)CO` [2-Ethyl-1-butanol] stands more than 90 µM; under `CCCCC(CC)CO` (centres unmarked) [2-Ethyl-1-hexanol], more than 90 µM. Still for that read-out and setting: for `CCC(CO)(CO)CO` [2-Ethyl-2-(hydroxymethyl)-1,3-propanediol] the value was more than 100 µM; for `CCC/C=C(/C=O)CC` [2-Ethyl-2-hexenal], more than 90 µM; for `CCC(CO)(CO)[N+](=O)[O-]` [2-Ethyl-2-nitro-1,3-propanediol], more than 90 µM.

For the compound `CCc1occc(=O)c1O` [2-Ethyl-3-hydroxy-4H-pyran-4-one], the CC50 at 24 h was more than 90 µM. With `CCc1nc(C)c[nH]1` [2-Ethyl-4-methyl-1H-imidazole], the CC50 at 24 h is more than 90 µM. On to `CCc1cccc(C)c1N` [2-Ethyl-6-methylaniline], for which the CC50 at 24 h was more than 90 µM. The same measure, in the same setting: for `CCc1ccccc1N` [2-Ethylaniline] the value was more than 90 µM. Same read-out and setting: for `CCc1ccc2c(c1)C(=O)c1ccccc1C2=O` [2-Ethylanthraquinone] the value was more than 90 µM; for `CCC(C=O)CC` [2-Ethylbutyraldehyde], more than 90 µM; for `CCC(CC)C(=O)O` [2-Ethylbutyric acid], more than 90 µM. Same read-out and setting: under `CCCCC(C=O)CC` (centres unmarked) [2-Ethylhexanal] stands more than 90 µM; under `CCCCC(CC)C(=O)Cl` (centres unmarked) [2-Ethylhexanoyl chloride], more than 90 µM. With `CCCCC(CC)COC(=O)c1ccc(N(C)C)cc1` (centres unmarked) [2-Ethylhexyl 4-(dimethylamino)benzoate], the CC50 at 24 h is more than 90 µM.

In turn, `CCCCC(CC)COC(C)=O` (centres unmarked) [2-Ethylhexyl acetate] gave a CC50 at 24 h of more than 90 µM. The same measure, in the same setting: for `C=CC(=O)OCC(CC)CCCC` (centres unmarked) [2-Ethylhexyl acrylate] the value was more than 90 µM. Still for that read-out and setting: for `CCCCC(CC)COC(=O)c1ccccc1` (centres unmarked) [2-Ethylhexyl benzoate] the value was more than 90 µM; for `CCCCC(CC)COC(=O)CC#N` (centres unmarked) [2-Ethylhexyl cyanoacetate], more than 90 µM. Still for that read-out and setting: under `CCCCC(CC)COCC1CO1` (centres unmarked) [2-Ethylhexyl glycidyl ether] stands more than 90 µM.

On to `C=C(C)C(=O)OCC(CC)CCCC` (centres unmarked) [2-Ethylhexyl methacrylate], for which the CC50 at 24 h is more than 90 µM.

With `CCCCCCCCCCCCCCCCCC(=O)OCC(CC)CCCC` (centres unmarked) [2-Ethylhexyl octadecanoate], the CC50 at 24 h was more than 90 µM.

`CCCCC(CC)COC(=O)c1ccccc1O` (centres unmarked) [2-Ethylhexyl salicylate] yielded a CC50 at 24 h of more than 50 µM. On the same count and under the same terms, for `CCCCC(CC)COC(=O)CS` (centres unmarked) [2-Ethylhexyl sulfanylacetate] the value was more than 90 µM. Take `CCCCC(CC)COC(=O)/C=C/c1ccc(OC)cc1` (stereo not drawn) [2-Ethylhexyl trans-4-methoxycinnamate]: the CC50 at 24 h was more than 90 µM.

In the case of `CCCCC(CC)COC(=O)C(C#N)=C(c1ccccc1)c1ccccc1` (centres unmarked) [2-Ethylhexyl-2-cyano-3,3-diphenylacrylate], the CC50 at 24 h is more than 90 µM.

Take `CCCCC(CC)CN` (centres unmarked) [2-Ethylhexylamine]: the 50% cytotoxic concentration (CC50) at 24 h was more than 90 µM. Still for that read-out and setting: under `CCc1ccccc1O` [2-Ethylphenol] stands more than 90 µM; under `CCC(CO)CO` [2-Ethylpropane-1,3-diol], more than 90 µM.

Consider `O=C(Cl)c1ccccc1F` [2-Fluorobenzoyl chloride], for which the CC50 at 24 h is more than 90 µM. Still for that read-out and setting: under `Fc1ccccc1-c1ccccc1` [2-Fluorobiphenyl] stands more than 90 µM; under `Oc1ccccc1F` [2-Fluorophenol], more than 90 µM; under `O=C(O)c1ccco1` [2-Furancarboxylic acid], more than 90 µM. In turn, `CCCCCC(C)O` (centres unmarked) [2-Heptanol] gave a CC50 at 24 h of more than 90 µM. On the same count and under the same terms, for `CCCCCC(C)=O` [2-Heptanone] the value was more than 90 µM. Regarding `CCCCCCCC1CCCC1=O` (centres unmarked) [2-Heptylcyclopentanone], the CC50 at 24 h is more than 90 µM. In turn, `CCCCCCCCC(CO)CCCCCC` (centres unmarked) [2-Hexyl-1-decanol] showed a half-maximal cytotoxic concentration (CC50) at 24 h of more than 90 µM. On the same count and under the same terms, for `CCCCCCCCC(CCCCCC)C(=O)O` (centres unmarked) [2-Hexyldecanoic acid] the value was more than 90 µM. The same measure, in the same setting: under `CCCCCCOCCO` [2-Hexyloxyethanol] stands more than 90 µM; under `NNc1nc(-c2ccc(N)cc2)cs1` [2-Hydrazino-4-(4-aminophenyl) thiazole], 74.8 µM; under `NNc1nc(-c2ccc([N+](=O)[O-])cc2)cs1` [2-Hydrazino-4-(4-nitrophenyl)thiazole], 58.8 µM.

In turn, `NNc1nc(-c2ccccc2)cs1` [2-Hydrazino-4-phenylthiazole] registered a half-maximal cytotoxic concentration (CC50) at 24 h of 47 µM.

The same data set, now with this note: rat, gh3-tre-luc cells, AC50 (uM) modified / 1000, Tox21_110001=Tox21_200404; viability, 1 nM T3 present, 24 h.
Consider `CCC(C)Cl` (centres unmarked) [2-Chlorobutane], for which the CC50 at 24 h was more than 90 µM.

Still in this data set, the particulars now being: rat, gh3-tre-luc cells, AC50 (uM) modified / 1000, Tox21_110001=Tox21_200522; viability, 1 nM T3 present, 24 h.
Take `O=C1CCCCC1Cl` (centres unmarked) [2-Chlorocyclohexanone]: the CC50 at 24 h was more than 90 µM.

Staying with this data set, now noted: rat, gh3-tre-luc cells, AC50 (uM) modified / 1000, Tox21_110001=Tox21_200981; viability, 1 nM T3 present, 24 h.
In turn, `Clc1ccc2ccccc2c1` [2-Chloronaphthalene] had a CC50 at 24 h of more than 90 µM.

Still in this data set, the particulars now being: rat, gh3-tre-luc cells, AC50 (uM) modified / 1000, Tox21_110001=Tox21_201089; viability, 1 nM T3 present, 24 h.
`ClCc1ccccc1Cl` [2-Chlorobenzyl chloride] yielded a CC50 at 24 h of more than 90 µM.

Still in this data set, the particulars now being: rat, gh3-tre-luc cells, AC50 (uM) modified / 1000, Tox21_110001=Tox21_201491; viability, 1 nM T3 present, 24 h.
As for `CCCCC(CC)COC(=O)Cl` (centres unmarked) [2-Ethylhexyl chloroformate], the CC50 at 24 h is more than 90 µM.

Staying with this data set, now noted: rat, gh3-tre-luc cells, AC50 (uM) modified / 1000, Tox21_110001=Tox21_300043; viability, 1 nM T3 present, 24 h.
The compound `OCCCl` [2-Chloroethanol] had a CC50 at 24 h of more than 90 µM.

Staying with this data set, now noted: rat, gh3-tre-luc cells, AC50 (uM) modified / 1000, Tox21_110001=Tox21_301297; viability, 1 nM T3 present, 24 h.
Take `NC(=O)CF` [2-Fluoroacetamide]: the CC50 at 24 h is more than 90 µM.

Staying with this data set, now noted: rat, gh3-tre-luc cells, AC50 (uM) modified / 1000, Tox21_110001=Tox21_303313; viability, 1 nM T3 present, 24 h.
Compound `CCCCC(CC)COP(=O)(Oc1ccccc1)Oc1ccccc1` (centres unmarked) [2-Ethylhexyl diphenyl phosphate] registered a CC50 at 24 h of more than 90 µM.
